Assay results reported in US10829520B2, “Beta-hairpin peptidomimetics” (POLYPHOR AG, priority 2015, dated 2020).
Where a SMILES comes first, the peptide text is derived from it. Bridges are numbered along the chain shown (N, C = ends). Roman numbers before positions name the chains, in order. [ ]: non-standard residue; d: D form. Tle = CC(C)(C)[C@H](N)C(=O)O; dDab = NCC[C@@H](N)C(=O)O; Nle = CCCC[C@H](N)C(=O)O; Orn = NCCC[C@H](N)C(=O)O; Dab = NCC[C@H](N)C(=O)O

Assays:
Type in all cases: cell-based
[1] = tested on: Acinetobacter baumannii 872842; conditions: 872842
[2] = tested on: Acinetobacter baumannii DSM 30008; conditions: DSM 30008
Summary of the method: (§1)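 Using the CLSI reference method, each strain at approx. 10^6 CFU/mL was exposed to serially diluted peptide in MH-II broth with 0.002% P-80. After 18-20 h at 35° C, the lowest concentration showing no visible growth gave the MIC.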

Escherichia coli 926415 = conditions: 926415
[3] = tested on: Escherichia coli ATCC 25922; conditions: ATCC 25922
Summary of the method: as §1

[4] = tested on: Klebsiella pneumoniae 968733; conditions: 968733
[5] = tested on: Klebsiella pneumoniae SSI #3010; conditions: SSI #3010
Summary of the method: as §1

[6] = tested on: Pseudomonas aeruginosa ATCC 27853; conditions: ATCC 27853
Summary of the method: as §1

[7] = tested on: human red blood cells (hRBC); assay: Hemolysis of human red blood cells; conditions: red cells of human, 1 h, 100
Summary of the method: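 Washed fresh human erythrocytes (20% v/v, ~0.9×10^9 cells/mL final) were incubated with peptides at 100 μg/mL for 1 h at 37 °C with shaking. Supernatant OD540 measured; hemolysis expressed as % of 2.5% Triton X-100 lysis, with PBS/0.001% acetic acid as 0%.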

CCCC[C@@H]1NC(=O)[C@@H]2CCCN2C(=O)[C@H]2CCCN2C(=O)[C@H](CO)NC(=O)[C@H](C)NC(=O)[C@H](C(C)(C)C)NC(=O)[C@H](CCN)NC(=O)[C@H](Cc2c[nH]c3ccccc23)NC(=O)[C@H](CCN)NC(=O)[C@@H](CCN)NC(=O)[C@H](CCC(=O)N[C@@H](CCN)C(=O)N[C@H](C(=O)N[C@@H](CCN)C(=O)N[C@H]2CCNC(=O)[C@H]([C@@H](C)O)NC(=O)[C@H](CCN)NC(=O)[C@H](CCN)NC(=O)[C@H](CC(C)C)NC(=O)[C@@H](Cc3ccccc3)NC(=O)[C@H](CCN)NC2=O)[C@@H](C)O)NC(=O)[C@H](CCN)NC(=O)[C@H](Cc2ccc(O)cc2)NC(=O)[C@H](CO)NC1=O [Ex. 7] (I: cyclo(W[Dab][Tle]AS[dP]P[Nle]SY[Dab]E[dDab][Dab]) / II: [Dab]T[Dab][Dab][Dab][dF]L[Dab][Dab]T; amide I:12-II:N; lactam II:4-II:C)
Acinetobacter baumannii 872842 MIC [1]: 1 µg/mL | Acinetobacter baumannii DSM 30008 MIC [2]: 1 µg/mL | Escherichia coli 926415 MIC (Escherichia coli 926415): 0.25 µg/mL | Escherichia coli ATCC 25922 MIC [3]: 0.125 µg/mL | Klebsiella pneumoniae 968733 MIC [4]: 2 µg/mL | Klebsiella pneumoniae SSI #3010 MIC [5]: 0.25 µg/mL | Pseudomonas aeruginosa ATCC 27853 MIC [6]: 0.25 µg/mL | Hemolysis at 100 μg/mL [7]: 1%

CC(C)C[C@@H]1NC(=O)[C@@H](Cc2ccccc2)NC(=O)[C@H](CCN)NC(=O)[C@@H](NC(=O)[C@H](CCN)NC(=O)[C@@H](NC(=O)[C@H](CCN)NC(=O)[C@H]2CC(=O)N[C@@H](CCN)C(=O)N[C@@H](Cc3c[nH]c4ccccc34)C(=O)N[C@@H](CCN)C(=O)N[C@@H](C(C)(C)C)C(=O)N[C@@H](C)C(=O)N[C@@H](CO)C(=O)N3CCC[C@@H]3C(=O)N3CCC[C@H]3C(=O)N[C@@H](C(C)C)C(=O)N[C@@H](CO)C(=O)N[C@@H](Cc3ccc(O)cc3)C(=O)N[C@@H](CCN)C(=O)N[C@@H](CCCN)C(=O)N2)[C@@H](C)O)CCNC(=O)[C@H]([C@@H](C)O)NC(=O)[C@H](CCN)NC(=O)[C@H](CCN)NC1=O [Ex. 8] ([Dab]W[Dab][Tle]AS[dP]PVSY[Dab][Orn][dD][Dab]T[Dab][Dab][Dab][dF]L[Dab][Dab]T; lactam 18-C, N-14)
Acinetobacter baumannii 872842 MIC [1]: 0.5 µg/mL | Acinetobacter baumannii DSM 30008 MIC [2]: 0.5 µg/mL | Escherichia coli 926415 MIC (Escherichia coli 926415): 1 µg/mL | Escherichia coli ATCC 25922 MIC [3]: 0.25 µg/mL | Klebsiella pneumoniae 968733 MIC [4]: 2 µg/mL | Klebsiella pneumoniae SSI #3010 MIC [5]: 0.25 µg/mL | Pseudomonas aeruginosa ATCC 27853 MIC [6]: 0.25 µg/mL | Hemolysis at 100 μg/mL [7]: 1%

CCCC[C@@H]1NC(=O)[C@@H]2CCCN2C(=O)[C@H]2CCCN2C(=O)[C@H](CO)NC(=O)[C@H](C)NC(=O)[C@H](C(C)(C)C)NC(=O)[C@H](CCN)NC(=O)[C@H](Cc2c[nH]c3ccccc23)NC(=O)[C@H](CCN)NC(=O)[C@@H](CCC(=O)N[C@@H](CCN)C(=O)N[C@H](C(=O)N[C@@H](CCN)C(=O)N[C@H]2CCNC(=O)[C@H]([C@@H](C)O)NC(=O)[C@H](CCN)NC(=O)[C@H](CCN)NC(=O)[C@H](CC(C)C)NC(=O)[C@@H](Cc3ccccc3)NC(=O)[C@H](CCN)NC2=O)[C@@H](C)O)NC(=O)[C@H](CCCN)NC(=O)[C@H](CCN)NC(=O)[C@H](Cc2ccc(O)cc2)NC(=O)[C@H](CO)NC1=O [Ex. 9] (I: cyclo([Nle]SY[Dab][Orn][dE][Dab]W[Dab][Tle]AS[dP]P) / II: [Dab]T[Dab][Dab][Dab][dF]L[Dab][Dab]T; amide I:6-II:N; lactam II:4-II:C)
Acinetobacter baumannii 872842 MIC [1]: 2 µg/mL | Acinetobacter baumannii DSM 30008 MIC [2]: 0.25 µg/mL | Escherichia coli 926415 MIC (Escherichia coli 926415): 1 µg/mL | Escherichia coli ATCC 25922 MIC [3]: 0.25 µg/mL | Klebsiella pneumoniae 968733 MIC [4]: 2 µg/mL | Klebsiella pneumoniae SSI #3010 MIC [5]: 0.5 µg/mL | Pseudomonas aeruginosa ATCC 27853 MIC [6]: 0.5 µg/mL | Hemolysis at 100 μg/mL [7]: 1%
